In BindingDB's records for doi:10.1021/bi9016186 (Weill Cornell Medical College, 2010) one finds IC50 data, which are given here for 2 compounds.

For this assay, the target named is T1, Dihydrolipoyl dehydrogenase (Mycobacterium tuberculosis (strain CDC 1551 / Oshkosh), UniProt P9WHH8).
T1 sequence (P9WHH8 whole entry): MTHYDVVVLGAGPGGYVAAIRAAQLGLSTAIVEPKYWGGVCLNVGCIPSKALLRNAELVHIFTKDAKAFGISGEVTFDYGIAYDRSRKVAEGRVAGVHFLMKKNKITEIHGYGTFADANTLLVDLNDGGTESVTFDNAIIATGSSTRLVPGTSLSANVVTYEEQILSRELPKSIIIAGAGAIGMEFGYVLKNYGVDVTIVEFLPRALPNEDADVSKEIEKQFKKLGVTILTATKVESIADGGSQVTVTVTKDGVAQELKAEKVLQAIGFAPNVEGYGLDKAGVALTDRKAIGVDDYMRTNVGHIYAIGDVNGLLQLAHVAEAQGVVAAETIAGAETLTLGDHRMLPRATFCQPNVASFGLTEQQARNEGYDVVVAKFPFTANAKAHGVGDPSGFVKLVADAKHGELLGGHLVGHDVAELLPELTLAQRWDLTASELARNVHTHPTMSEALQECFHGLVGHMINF
The assay can be described thus: Enzymatic Assay.

SMILES strings stand for the structures. pIC50: −log10 of the molar value.

Turning to `COc1ccc(C(=O)N2CCC3(CC2)C(=O)N(CC(=O)NCCc2ccc(C(F)(F)F)cc2)CN3c2ccccc2)c(OC)c1` [Triazaspirobenzyl, 4], the pIC50 (usually the IC50 on a negative log10 scale, so that one unit is a factor of ten) is 5.70. Compound `COc1cccc(C(=O)N2CCC3(CC2)C(=O)N(CC(=O)NCCc2ccc(C(F)(F)F)cc2)CN3c2ccccc2)c1` [Triazaspirobenzyl, 8] gave a pIC50 below 4.00.
